Patent publication US20190070182A1, “USES OF PYRIMIDO-PYRIDAZINONES TO TREAT CANCER” (Asana Biosciences, LLC, priority 2015, published 2019)

How the values were obtained:
[1] = tested on: ibrutinib-resistant variant of Pfeiffer ("Ibrutinib-R"); assay: cell proliferation, ibrutinib-resistant Pfeiffer; type: cell-based; conditions: Homo sapiens, pools of resistant cells
Method: (§1) This activity of ASN002 was assessed using a diffuse large B-cell lymphoma (DLBCL) cell line, Pfeiffer (“Parental”); and an ibrutinib-resistant variant of the same cell line (“Ibrutinib-R”), which was developed by growing the cells in the presence of increasing concentrations of ibrutinib. Pools of ibrutinib-resistant cells were tested in this study. The drug idelalisib (which was approved by the FDA in […] for the treatment of B-cell blood cancers) was used for comparison as a reference compound. The data are set forth in Table A (IC50 is the half maximal inhibitory concentration).

[2] = tested on: human erythroleukemia model derived from HEL cell line; assay: mouse model of human erythroleukemia (HEL); type: in vivo; conditions: HEL cell line (FIG. 6)
[3] = tested on: Pfeiffer ("Parental") DLBCL cell line; assay: cell proliferation, Pfeiffer parental; type: cell-based; conditions: Homo sapiens
Method: as §1

[4] = tested on: DLBCL xenograft derived from Pfeiffer cell line; assay: DLBCL xenograft mouse model (Pfeiffer); type: in vivo; conditions: Pfeiffer cell line (FIG. 3)
MIAPACA2 = assay: antiproliferative activity, solid tumor cell line; type: cell-based; conditions: Homo sapiens, MIA PaCa-2; MIAPACA2, Pancreas
Method: (§2) Example 2. The Anti-Cancer Activity of ASN002 was Also Evaluated in Many Solid Tumor Cell Lines.

HepG2 = assay: antiproliferative activity, solid tumor cell line; type: cell-based; conditions: Homo sapiens; HepG2, Liver
Method: as §2

SW780 = assay: antiproliferative activity, solid tumor cell line; type: cell-based; conditions: Homo sapiens; SW780, Bladder
Method: as §2

MKN1 = assay: antiproliferative activity, solid tumor cell line; type: cell-based; conditions: Homo sapiens, MKN-1; MKN1, Gastric
Method: as §2

Hec1A = assay: antiproliferative activity, solid tumor cell line; type: cell-based; conditions: Homo sapiens, HEC-1-A, Endometrial
Method: as §2

5637 = assay: antiproliferative activity, solid tumor cell line; type: cell-based; conditions: 5637, Bladder
Method: as §2

HT1376 = assay: antiproliferative activity, solid tumor cell line; type: cell-based; conditions: Homo sapiens, HT-1376; HT1376, Bladder
Method: as §2

MFM-223 = assay: antiproliferative activity, solid tumor cell line; type: cell-based; conditions: Homo sapiens; MFM-223, Breast
Method: as §2

HUG1N = assay: antiproliferative activity, solid tumor cell line; type: cell-based; conditions: Gasrtic
Method: as §2

Y79 = assay: antiproliferative activity, solid tumor cell line; type: cell-based; conditions: Homo sapiens; Y79, Retiblastoma
Method: as §2

H1975 = assay: antiproliferative activity, solid tumor cell line; type: cell-based; conditions: Homo sapiens, NCI-H1975; H1975, Lung
Method: as §2

Caki1 = assay: antiproliferative activity, solid tumor cell line; type: cell-based; conditions: Homo sapiens, CAKI-1; Caki1, Kidney
Method: as §2

SW1990 = assay: antiproliferative activity, solid tumor cell line; type: cell-based; conditions: Homo sapiens; SW1990, Pancreas
Method: as §2

A549 = assay: antiproliferative activity, solid tumor cell line; type: cell-based; conditions: Homo sapiens; A549, Lung
Method: as §2

JEG3 = assay: antiproliferative activity, solid tumor cell line; type: cell-based; conditions: Homo sapiens, JEG-3; JEG3, Placenta
Method: as §2

HCC1806 = assay: antiproliferative activity, solid tumor cell line; type: cell-based; conditions: Homo sapiens; HCC1806, Breast
Method: as §2

EAhy296 = assay: antiproliferative activity, solid tumor cell line; type: cell-based; conditions: EAhy296, Endothelial
Method: as §2

SKMEL28 = assay: antiproliferative activity, solid tumor cell line; type: cell-based; conditions: Homo sapiens, SK-MEL-28; SKMEL28, Melanoma
Method: as §2

AsPC1 = assay: antiproliferative activity, solid tumor cell line; type: cell-based; conditions: Homo sapiens; AsPC1, Pancreas
Method: as §2

LNCaP = assay: antiproliferative activity, solid tumor cell line; type: cell-based; conditions: Homo sapiens, Prostate
Method: as §2

MDAMB468 = assay: antiproliferative activity, solid tumor cell line; type: cell-based; conditions: Homo sapiens, MDA-MB-468; MDAMB468, Breast
Method: as §2

Colo205 = assay: antiproliferative activity, solid tumor cell line; type: cell-based; conditions: Homo sapiens, COLO 205; Colo205, Colon
Method: as §2

SKOV3 = assay: antiproliferative activity, solid tumor cell line; type: cell-based; conditions: Homo sapiens, SK-OV-3; SKOV3, Ovarian
Method: as §2

HCT116 = assay: antiproliferative activity, solid tumor cell line; type: cell-based; conditions: Homo sapiens, HCT-116; HCT116, Colon
Method: as §2

BT474 = assay: antiproliferative activity, solid tumor cell line; type: cell-based; conditions: Homo sapiens, BT-474; BT474, Breast
Method: as §2

H460 = assay: antiproliferative activity, solid tumor cell line; type: cell-based; conditions: Homo sapiens, NCI-H460; H460, Lung
Method: as §2

MDAMB453 = assay: antiproliferative activity, solid tumor cell line; type: cell-based; conditions: Homo sapiens, MDA-MB-453; MDAMB453, Breast
Method: as §2

SCaBER = assay: antiproliferative activity, solid tumor cell line; type: cell-based; conditions: Homo sapiens, Bladder
Method: as §2

MDA-MB-231 = assay: antiproliferative activity, solid tumor cell line; type: cell-based; conditions: Homo sapiens; MDA-MB-231, Breast
Method: as §2

BxPC3 = assay: antiproliferative activity, solid tumor cell line; type: cell-based; conditions: Homo sapiens, BXPC-3; BxPC3, Pancreas
Method: as §2

H1299 = assay: antiproliferative activity, solid tumor cell line; type: cell-based; conditions: Homo sapiens, NCI-H1299; H1299, Lung
Method: as §2

SKHEP1 = assay: antiproliferative activity, solid tumor cell line; type: cell-based; conditions: Homo sapiens, SK-HEP1; SKHEP1, Endothelial
Method: as §2

CAOV3 = assay: antiproliferative activity, solid tumor cell line; type: cell-based; conditions: Homo sapiens, Caov-3; CAOV3, Ovary
Method: as §2

HeLa = assay: antiproliferative activity, solid tumor cell line; type: cell-based; conditions: Homo sapiens, Cervical
Method: as §2

MFE296 = assay: antiproliferative activity, solid tumor cell line; type: cell-based; conditions: Homo sapiens, MFE-296; MFE296, Endometrial
Method: as §2

HCC1937 = assay: antiproliferative activity, solid tumor cell line; type: cell-based; conditions: Homo sapiens; HCC1937, Breast
Method: as §2

KE39 = assay: antiproliferative activity, solid tumor cell line; type: cell-based; conditions: KE39, Gastric
Method: as §2

U87MG = assay: antiproliferative activity, solid tumor cell line; type: cell-based; conditions: Homo sapiens, U-87 MG, Glioblastoma
Method: as §2

SW480 = assay: antiproliferative activity, solid tumor cell line; type: cell-based; conditions: Homo sapiens; SW480, Colon
Method: as §2

ZR75 = assay: antiproliferative activity, solid tumor cell line; type: cell-based; conditions: ZR75, Breast
Method: as §2

TCCSUP = assay: antiproliferative activity, solid tumor cell line; type: cell-based; conditions: Homo sapiens, TCC-SUP, Bladder
Method: as §2

PC3 = assay: antiproliferative activity, solid tumor cell line; type: cell-based; conditions: Homo sapiens, PC-3; PC3, Prostate
Method: as §2

HCC1954 = assay: antiproliferative activity, solid tumor cell line; type: cell-based; conditions: Homo sapiens; HCC1954, Breast
Method: as §2

J82 = assay: antiproliferative activity, solid tumor cell line; type: cell-based; conditions: Homo sapiens; J82, Bladder
Method: as §2

MDAMB361 = assay: antiproliferative activity, solid tumor cell line; type: cell-based; conditions: Homo sapiens, MDA-MB-361; MDAMB361, Breast
Method: as §2

BT20 = assay: antiproliferative activity, solid tumor cell line; type: cell-based; conditions: Homo sapiens, BT-20; BT20, Breast
Method: as §2

A375 = assay: antiproliferative activity, solid tumor cell line; type: cell-based; conditions: Homo sapiens, A-375; A375, Melanoma
Method: as §2

C33A = assay: antiproliferative activity, solid tumor cell line; type: cell-based; conditions: Homo sapiens, C-33-A, Cervical
Method: as §2

DU145 = assay: antiproliferative activity, solid tumor cell line; type: cell-based; conditions: Homo sapiens, DU-145; DU145, Prostate
Method: as §2

T24 = assay: antiproliferative activity, solid tumor cell line; type: cell-based; conditions: Homo sapiens, T-24; T24, Bladder
Method: as §2

H1581 = assay: antiproliferative activity, solid tumor cell line; type: cell-based; conditions: Homo sapiens, NCI-H1581; H1581, Lung
Method: as §2

HT29 = assay: antiproliferative activity, solid tumor cell line; type: cell-based; conditions: Homo sapiens, HT-29; HT29, Colon
Method: as §2

HT1197 = assay: antiproliferative activity, solid tumor cell line; type: cell-based; conditions: Homo sapiens; HT1197, Bladder
Method: as §2

UMUC3 = assay: antiproliferative activity, solid tumor cell line; type: cell-based; conditions: Homo sapiens; UMUC3, Bladder
Method: as §2

CFPac1 = assay: antiproliferative activity, solid tumor cell line; type: cell-based; conditions: Homo sapiens, CFPAC-1; CFPac1, Pancreas
Method: as §2

LoVo = assay: antiproliferative activity, solid tumor cell line; type: cell-based; conditions: Homo sapiens, Colon
Method: as §2

SKMEL2 = assay: antiproliferative activity, solid tumor cell line; type: cell-based; conditions: Homo sapiens, SK-MEL-2; SKMEL2, Melanoma
Method: as §2

MCF7 = assay: antiproliferative activity, solid tumor cell line; type: cell-based; conditions: Homo sapiens; MCF7, Breast
Method: as §2

[5] = tested on: multiple myeloma model derived from H929 cell line; assay: mouse model of multiple myeloma (H929); type: in vivo; conditions: H929 cell line (FIG. 5)
[6] = tested on: DLBCL xenograft derived from SU-DHL-6 cell line; assay: DLBCL xenograft mouse model (SU-DHL-6); type: in vivo; conditions: SU-DHL-6 cell line (FIG. 4)
[7] = tested on: Pfeiffer (DLBCL cell line); assay: caspase 3/7 apoptosis assay; type: cell-based; conditions: Homo sapiens, 24-hour treatment (FIG. 1), read-out: EC50, induced apoptosis (caspase 3/7 assay)
[8] = tested on: hematological malignant cell lines (leukemia, lymphoma, multiple myelomas); assay: antiproliferative activity, hematological malignant cell line panel; type: cell-based; conditions: cell line panel representing leukemia, multiple myelomas (FIG. 2)

## N#CCC1CCN(c2nc(Nc3ccc(N4CCC(O)CC4)cc3)c3c(=O)[nH]ncc3n2)CC1 [ASN002, 2-(1-(4-((4-(4-hydroxypiperidin-1-yl)phenyl)amino)-5-oxo-5,6-dihydropyrimido[4,5-d]pyridazin-2-yl)piperidin-4-yl)acetonitrile]
[1]
  IC50: 320 nM
[2]
  hind limb paralysis: delayed the hind limb paralysis
[3]
  IC50: 80 nM
[4]
  tumor growth: inhibited tumor growth
MIAPACA2
  IC50: 2770 nM
HepG2
  IC50: 240 nM
SW780
  IC50: > 10000 nM
MKN1
  IC50: 880 nM
Hec1A
  IC50: 660 nM
5637
  IC50: 420 nM
HT1376
  IC50: 90 nM
MFM-223
  IC50: 400 nM
HUG1N
  IC50: 810 nM
Y79
  IC50: > 10000 nM
H1975
  IC50: 850 nM
Caki1
  IC50: 330 nM
SW1990
  IC50: 1620 nM
A549
  IC50: 460 nM
JEG3
  IC50: > 10000 nM
HCC1806
  IC50: 1630 nM
EAhy296
  IC50: 1800 nM
SKMEL28
  IC50: > 10000 nM
AsPC1
  IC50: 840 nM
LNCaP
  IC50: 1070 nM
MDAMB468
  IC50: 1460 nM
Colo205
  IC50: 610 nM
SKOV3
  IC50: 730 nM
HCT116
  IC50: 430 nM
BT474
  IC50: > 10000 nM
H460
  IC50: 910 nM
MDAMB453
  IC50: 1740 nM
SCaBER
  IC50: 450 nM
MDA-MB-231
  IC50: 770 nM
BxPC3
  IC50: 660 nM
H1299
  IC50: > 10000 nM
SKHEP1
  IC50: > 10000 nM
CAOV3
  IC50: 420 nM
HeLa
  IC50: 770 nM
MFE296
  IC50: 880 nM
HCC1937
  IC50: > 10000 nM
KE39
  IC50: 860 nM
U87MG
  IC50: > 10000 nM
SW480
  IC50: 600 nM
ZR75
  IC50: 420 nM
TCCSUP
  IC50: 340 nM
PC3
  IC50: 1980 nM
HCC1954
  IC50: > 10000 nM
J82
  IC50: 2750 nM
MDAMB361
  IC50: 490 nM
BT20
  IC50: 2130 nM
A375
  IC50: 610 nM
C33A
  IC50: 500 nM
DU145
  IC50: 990 nM
T24
  IC50: 440 nM
H1581
  IC50: 380 nM
HT29
  IC50: 300 nM
HT1197
  IC50: 540 nM
UMUC3
  IC50: 2280 nM
CFPac1
  IC50: 850 nM
LoVo
  IC50: 150 nM
SKMEL2
  IC50: 1030 nM
MCF7
  IC50: 600 nM
[5]
  tumor growth: inhibited tumor growth
[6]
  tumor growth: inhibited tumor growth
[7]
  EC50: 120 nM
[8]
  antiproliferative activity: strong antiproliferative activity

## C=CC(=O)N1CCC[C@@H](n2nc(-c3ccc(Oc4ccccc4)cc3)c3c(N)ncnc32)C1 [Ibrutinib, ibrutinib]
[1]
  IC50: 4500 nM
[3]
  IC50: 270 nM

## CC[C@H](Nc1ncnc2[nH]cnc12)c1nc2cccc(F)c2c(=O)n1-c1ccccc1 [Idelalisib, idelalisib]
[1]
  IC50: > 10000 nM
[3]
  IC50: 130 nM
